Measured values: patent US6417195B1, “Isoquinoline derivatives and isoquinoline combinatorial libraries” (Lion Bioscience AG, priority 1999, dated 2002)

The compounds below were run on Streptococcus pyogenes (assay: Anti-microbial screen). Conditions: growth at 4 hrs, OD 570 nm, Todd Hewitt Broth.
Format: cell-based
Description: Streptococcus pyogenes (ATCC# 97-03 14289) were grown in Todd Hewitt Broth (THB) (Difco Laboratories #0492-17-6) overnight until they reached an optical density of (OD═0.636@ 570 nm) by reading 0.1 ml in a 96 well microtiter plate in a Molecular Devices Thermomax. This preparation was kept frozen as stocks in 30% v/v glycerol in 1.5 ml aliquots at −70° C. until use. Prior to experiments 1.5 ml aliquots were thawed and diluted into 50 ml THB. 200 ul of this dilution was added to 92 wells of microtiter plate. To three wells THB (200 ul) was added to serve as a blank and a sterility control. Test compounds in DMSO and appropriate concentrations of DMSO were added to Growth/Solvent Controls at 0 time. Plates were read at 0 time at 570 nm in the Molecular Devices plate reader to obtain compounds correction factors for insoluble or colored compounds. Plates were read again at 4 hrs.
Percent inhibition was calculated with the following formulae:
Color correct=(O.D. 0 hr−Blank 0 hr)−(Solvent Control 0 hr−Blank 0 hr)
% Inhibition=100−O.D. test compound 4 hr−Blank 4 hr−color correct
O.D. growth/solvent control 4 hr−Blank 4 hr
In the case of `CN(C)CCN(CC(N)=O)C(=O)CCN1C(=O)c2ccccc2C(C(=O)NC2CCC(C(C)(C)C)CC2)C1c1ccc(O)c(O)c1` (stereo not drawn) [Compound 2520-2], the “% Inhibition” value is reported as 94%. `CCOC(=O)CCNC(=O)C1c2ccccc2C(=O)N(CCC(=O)N(CC(N)=O)CC2CCCN2CC)C1c1ccc(N(C)C)cc1` (stereo not drawn) [Compound 2520-7126] was tested, and the “% Inhibition” value was 26%. `CCN(CCNC(=O)C1c2ccccc2C(=O)N(CCC(=O)N(CC(N)=O)Cc2ccccc2)C1c1ccc(N(C)C)cc1)c1cccc(C)c1` (stereo not drawn) [Compound 2520-3137] was tested, and the “% Inhibition” value was 66%. With `CCN(CCNC(=O)C1c2ccccc2C(=O)N(CCC(=O)N(CC(N)=O)CC2CCCN2CC)C1c1ccc(SC)cc1)c1cccc(C)c1` (stereo not drawn) [Compound 2520-7921] the “% Inhibition” value was 100%. With `CCCCOCCCNC(=O)C1c2ccccc2C(=O)N(CCC(=O)N(CCN(CCCC)CCCC)CC(N)=O)C1c1ccc(O)c(O)c1` (stereo not drawn) [Compound 2520-722] the “% Inhibition” value was 58%. `C=CCN(CC(N)=O)C(=O)c1ccc(CN2C(=O)c3ccccc3C(C(=O)NCCCCCCCCCCCC)C2c2ccc(O)cc2)cc1` (stereo not drawn) [Compound 2530-6448] was tested, and the “% Inhibition” value was 53%. `CCN(CC)CCCC(C)NC(=O)C1c2ccccc2C(=O)N(Cc2ccc(C(=O)N(CC(N)=O)CC3CCCN3CC)cc2)C1c1ccc(O)cc1` (stereo not drawn) [Compound 2530-3185] was tested, and the “% Inhibition” value was 4%. `CN(C)CCN(CC(N)=O)C(=O)c1ccc(CN2C(=O)c3ccccc3C(C(=O)NCCN3CCCC3)C2c2ccccc2)cc1` (stereo not drawn) [Compound 2530-1] was tested, and the “% Inhibition” value was 44%. `CCCCOCCCNC(=O)C1c2ccccc2C(=O)N(CCC(=O)N(CC(N)=O)Cc2ccccc2)C1c1ccc(N(C)C)cc1` (stereo not drawn) [Compound 2520-3138] was tested, and the “% Inhibition” value was 19%. In the case of `CCc1ccc(C2C(C(=O)NCCN(C)C)c3ccccc3C(=O)N2Cc2ccc(C(=O)N(CCOC)CC(N)=O)cc2)cc1` (stereo not drawn) [Compound 2530-4162], the “% Inhibition” value is reported as 30%. `CCN1CCCC1CN(CC(N)=O)C(=O)CCN1C(=O)c2ccccc2C(C(=O)N2CCN(C)CC2)C1c1ccc(-c2ccccc2)cc1` (stereo not drawn) [Compound 2520-6333] was tested, and the “% Inhibition” value was 78%. For `CCN1CCCC1CN(CC(N)=O)C(=O)CCN1C(=O)c2ccccc2C(C(=O)NCCCN2CCCCC2C)C1c1ccc(N(C)C)cc1` (stereo not drawn) [Compound 2520-7125], the “% Inhibition” value was 100%. With `CCCCOCCCNC(=O)C1c2ccccc2C(=O)N(CCC(=O)N(CC(N)=O)CC2CCCN2CC)C1c1ccc(SC)cc1` (stereo not drawn) [Compound 2520-7922] the “% Inhibition” value was 87%. `CN(C)CCN(CC(N)=O)C(=O)CCN1C(=O)c2ccccc2C(C(=O)NCCN2CCCC2)C1c1ccc(O)c(O)c1` (stereo not drawn) [Compound 2520-1] was tested, and the “% Inhibition” value was 9%. With `C=CCN(CC(N)=O)C(=O)c1ccc(CN2C(=O)c3ccccc3C3C(=O)N4CCOc5c(O)ccc(c54)C32)cc1` (stereo not drawn) [Compound 2530-6447] the “% Inhibition” value was 8%. In the case of `CC(C)(C)C1CCC(NC(=O)C2c3ccccc3C(=O)N(CC3CCC(C(=O)N(CCCn4ccnc4)CC(N)=O)CC3)C2c2ccccc2)CC1` (stereo not drawn) [Compound 2530-4818], the “% Inhibition” value is reported as 61%. In the case of `C=CCNC(=O)C1c2ccccc2C(=O)N(CCC(=O)N(CCN(C)C)CC(N)=O)C1c1cccc(Oc2ccccc2)c1` (stereo not drawn) [Compound 2520-4746], the “% Inhibition” value is reported as 100%. In the case of `CCCCN(CCCC)CCN(CC(N)=O)C(=O)CCN1C(=O)c2ccccc2C(C(=O)NCCN(CC)c2cccc(C)c2)C1c1ccc(O)c(O)c1` (stereo not drawn) [Compound 2520-721], the “% Inhibition” value is reported as 86%. In the case of `NC(=O)CN(CCCn1ccnc1)C(=O)C1CCC(CN2C(=O)c3ccccc3C3C(=O)N4CCC(N5CCCC5)c5cccc(c54)C32)CC1` (stereo not drawn) [Compound 2530-4819], the “% Inhibition” value is reported as 20%. `NC(=O)CN(CCN1CCCCC1)C(=O)c1ccc(CN2C(=O)c3ccccc3C(C(=O)NCCN3CCCC3)C2c2ccccc2)cc1` (stereo not drawn) [Compound 2530-865] was tested, and the “% Inhibition” value was 20%. In the case of `CSc1ccc(C2C(C(=O)NCCN(C)C)c3ccccc3C(=O)N2Cc2ccc(C(=O)N(CCc3ccc(Cl)cc3Cl)CC(N)=O)cc2)cc1` (stereo not drawn) [Compound 2530-4402], the “% Inhibition” value is reported as 96%. In the case of `CCCN(CC(N)=O)C(=O)C1CCC(CN2C(=O)c3ccccc3C(C(=O)NCCN3CCCC3)C2c2cccc(C)n2)CC1` (stereo not drawn) [Compound 2530-1537], the “% Inhibition” value is reported as 4%. In the case of `CCN1CCCC1CN(CC(N)=O)C(=O)c1ccc(CN2C(=O)c3ccccc3C(C(=O)NC3CCC(C(C)(C)C)CC3)C2c2ccc(O)cc2)cc1` (stereo not drawn) [Compound 2530-3186], the “% Inhibition” value is reported as 101%. For `CCCCOCCCNC(=O)C1c2ccccc2C(=O)N(CCC(=O)N(CC(N)=O)NC(=O)OC)C1c1cc(C(F)(F)F)cc(C(F)(F)F)c1` (stereo not drawn) [Compound 2520-5548], the “% Inhibition” value was 43%. For `CCN1CCCC1CN(CC(N)=O)C(=O)CCN1C(=O)c2ccccc2C(C(=O)NCCCN2CCCCC2C)C1c1cccc([N+](=O)[O-])c1` (stereo not drawn) [Compound 2520-2341], the “% Inhibition” value was 104%. With `NC(=O)CN(CCN1CCOCC1)C(=O)c1ccc(CN2C(=O)c3ccccc3C3C(=O)N4CCN(Cc5ccccc5)c5c(-c6ccccc6)ccc(c54)C32)cc1` (stereo not drawn) [Compound 2530-2501] the “% Inhibition” value was 109%. With `NC(=O)CN(CCN1CCCCC1)C(=O)c1ccc(CN2C(=O)c3ccccc3C(C(=O)NCc3cccnc3)C2c2ccccc2)cc1` (stereo not drawn) [Compound 2530-866] the “% Inhibition” value was 11%. For `CCOC(=O)CC(C)NC(=O)C1c2ccccc2C(=O)N(CCC(=O)N(CCN(C)C)CC(N)=O)C1c1cccc(Oc2ccccc2)c1` (stereo not drawn) [Compound 2520-4745], the “% Inhibition” value was 99%. For `CSc1ccc2c3c1C(Br)CCN3C(=O)C1c3ccccc3C(=O)N(Cc3ccc(C(=O)N(CCc4ccc(Cl)cc4Cl)CC(N)=O)cc3)C21` (stereo not drawn) [Compound 2530-4401], the “% Inhibition” value was 45%. In the case of `CCN1CCCC1CN(CC(N)=O)C(=O)CCN1C(=O)c2ccccc2C(C(=O)N2CCN(Cc3ccccc3)CC2)C1c1ccc(-c2ccccc2)cc1` (stereo not drawn) [Compound 2520-6332], the “% Inhibition” value is reported as 98%. `CN(C)CCN(CC(N)=O)C(=O)c1ccc(CN2C(=O)c3ccccc3C(C(=O)NCc3cccnc3)C2c2ccccc2)cc1` (stereo not drawn) [Compound 2530-2] was tested, and the “% Inhibition” value was 51%. In the case of `CCCN(CC(N)=O)C(=O)C1CCC(CN2C(=O)c3ccccc3C(C(=O)NCc3cccnc3)C2c2cccc(C)n2)CC1` (stereo not drawn) [Compound 2530-1538], the “% Inhibition” value is reported as 15%. With `CCN(CCNC(=O)C1c2ccccc2C(=O)N(CCC(=O)N(CC(N)=O)NC(=O)OC)C1c1cc(C(F)(F)F)cc(C(F)(F)F)c1)c1cccc(C)c1` (stereo not drawn) [Compound 2520-5545] the “% Inhibition” value was 86%.
